# Like-named read-outs stand apart in the source and are kept apart here.
# What was measured:
# Type in all cases: cell-based
# [1] = biological target: T1, M4 muscarinic receptor (Homo sapiens, UniProt P08173); test: Functional mobilization of intracellular calcium (FLIPR) in CHO cells expressing M4; details: for EC50: CHO cells expressing M4, FLIPR calcium; for Emax: CHO; for M4 Activity: CHO cells expressing M4, FLIPR calcium assay
# T1 construct: expressed in transfected cells; host or cells: CHO (M4-CHO)
# T1 sequence (P08173 1-479): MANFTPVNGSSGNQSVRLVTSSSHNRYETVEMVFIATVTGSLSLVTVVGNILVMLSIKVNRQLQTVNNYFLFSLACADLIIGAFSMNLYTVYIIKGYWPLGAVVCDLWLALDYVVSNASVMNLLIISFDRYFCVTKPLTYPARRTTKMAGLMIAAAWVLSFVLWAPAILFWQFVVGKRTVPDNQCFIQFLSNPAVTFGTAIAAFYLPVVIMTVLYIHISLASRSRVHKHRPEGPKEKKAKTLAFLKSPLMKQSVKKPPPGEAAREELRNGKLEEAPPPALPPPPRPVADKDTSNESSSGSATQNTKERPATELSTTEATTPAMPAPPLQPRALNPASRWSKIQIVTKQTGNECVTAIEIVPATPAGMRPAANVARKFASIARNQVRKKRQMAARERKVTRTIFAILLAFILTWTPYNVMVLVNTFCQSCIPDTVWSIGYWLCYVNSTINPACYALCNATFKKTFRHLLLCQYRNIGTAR
# In short: (§1)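 Recombinant CHO cells loaded with Fluo-3 AM or Calcium 3 dye in pH 7.4 buffer containing 1 mM probenecid, with 0.5% final DMSO. For agonism, compound is added directly. For inhibition, it is preincubated 15 min, or co-applied, before carbachol at EC80. FLIPR fluorescence (ex 488, em 540 nm) is recorded for 60 s.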
# [2] = biological target: T2, M3 muscarinic receptor (Homo sapiens, UniProt P20309); test: Functional mobilization of intracellular calcium (FLIPR) in CHO cells expressing M3; details: for EC50: CHO cells expressing M3, FLIPR calcium; for Emax: CHO; for M3 Activity: CHO cells expressing M3, FLIPR calcium assay
# T2 construct: expressed in transfected cells; host or cells: CHO (M3-CHO)
# T2 sequence (P20309 whole entry): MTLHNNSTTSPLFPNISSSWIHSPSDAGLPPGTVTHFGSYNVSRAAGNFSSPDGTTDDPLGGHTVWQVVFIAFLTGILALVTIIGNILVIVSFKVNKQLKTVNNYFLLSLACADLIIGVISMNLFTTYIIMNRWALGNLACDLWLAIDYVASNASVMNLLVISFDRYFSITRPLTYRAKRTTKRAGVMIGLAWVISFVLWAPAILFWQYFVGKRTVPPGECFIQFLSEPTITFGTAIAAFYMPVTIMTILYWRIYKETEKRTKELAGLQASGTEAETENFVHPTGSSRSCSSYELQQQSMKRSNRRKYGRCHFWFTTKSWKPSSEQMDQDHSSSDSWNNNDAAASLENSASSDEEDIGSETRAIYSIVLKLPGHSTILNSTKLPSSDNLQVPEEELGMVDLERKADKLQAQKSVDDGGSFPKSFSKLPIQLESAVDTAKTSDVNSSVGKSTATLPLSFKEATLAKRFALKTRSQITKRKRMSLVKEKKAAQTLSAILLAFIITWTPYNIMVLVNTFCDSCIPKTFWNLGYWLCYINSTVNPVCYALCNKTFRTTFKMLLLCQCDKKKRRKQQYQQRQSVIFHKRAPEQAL
# In short: as §1
# [3] = biological target: T3, M1 muscarinic receptor (Homo sapiens, UniProt P11229); test: Functional mobilization of intracellular calcium (FLIPR) in CHO cells expressing M1; details: for EC50: CHO cells expressing M1, FLIPR calcium; for Emax: CHO; for M1 Activity: CHO cells expressing M1, FLIPR calcium assay
# T3 construct: expressed in transfected cells; host or cells: CHO (M1-CHO)
# T3 sequence (P11229 1-460): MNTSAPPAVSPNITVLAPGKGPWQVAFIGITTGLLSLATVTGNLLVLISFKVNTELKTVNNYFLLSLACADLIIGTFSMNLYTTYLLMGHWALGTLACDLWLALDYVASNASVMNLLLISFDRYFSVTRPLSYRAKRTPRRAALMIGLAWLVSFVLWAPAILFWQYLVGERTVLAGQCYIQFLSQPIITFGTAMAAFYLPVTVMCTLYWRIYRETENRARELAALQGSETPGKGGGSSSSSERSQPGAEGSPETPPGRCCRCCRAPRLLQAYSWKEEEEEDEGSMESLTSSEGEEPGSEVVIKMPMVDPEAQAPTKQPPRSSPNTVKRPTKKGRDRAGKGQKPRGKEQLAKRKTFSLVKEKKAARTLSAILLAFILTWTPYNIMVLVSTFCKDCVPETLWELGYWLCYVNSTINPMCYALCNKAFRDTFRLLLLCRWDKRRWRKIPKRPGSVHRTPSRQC
# In short: as §1
# [4] = biological target: T4, M2 muscarinic receptor (Homo sapiens, UniProt P08172); test: Functional mobilization of intracellular calcium (FLIPR) in CHO cells expressing M2; details: for EC50: CHO cells expressing M2, FLIPR calcium; for Emax: CHO; for M2 Activity: CHO cells expressing M2, FLIPR calcium assay
# T4 construct: expressed in transfected cells; host or cells: CHO (M2-CHO)
# T4 sequence (P08172 1-466): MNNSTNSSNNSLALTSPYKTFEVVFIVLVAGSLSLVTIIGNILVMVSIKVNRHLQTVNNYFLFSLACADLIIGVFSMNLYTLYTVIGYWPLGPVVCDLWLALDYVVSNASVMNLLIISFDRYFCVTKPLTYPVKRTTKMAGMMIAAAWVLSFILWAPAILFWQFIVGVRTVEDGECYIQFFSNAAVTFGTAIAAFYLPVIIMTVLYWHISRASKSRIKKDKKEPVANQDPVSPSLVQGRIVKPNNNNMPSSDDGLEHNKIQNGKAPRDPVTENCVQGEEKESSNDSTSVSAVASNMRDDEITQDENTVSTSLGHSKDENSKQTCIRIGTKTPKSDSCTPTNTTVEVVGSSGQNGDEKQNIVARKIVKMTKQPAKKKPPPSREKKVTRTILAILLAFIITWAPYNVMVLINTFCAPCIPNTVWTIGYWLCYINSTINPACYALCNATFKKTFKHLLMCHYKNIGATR
# In short: as §1
# [5] = 100% = maximum response obtained with the Carbachol control, read-out: M4 Efficacy
# [6] = 100% = maximum response obtained with the Carbachol control, read-out: M3 Efficacy
# [7] = 100% = maximum response obtained with the Carbachol control, read-out: M1 Efficacy
# [8] = 100% = maximum response obtained with the Carbachol control, read-out: M2 Efficacy
# [9] = 100% efficacy = maximum response obtained with the Carbachol control
Compound,EC50 [1],"Emax [1, 5]",EC50 [2],"Emax [2, 6]",EC50 [3],"Emax [3, 7]",EC50 [4],"Emax [4, 8]",M4 Activity [1],"Emax [1, 9]",M3 Activity [2],"Emax [2, 9]",M1 Activity [3],"Emax [3, 9]",M2 Activity [4],"Emax [4, 9]"
CC(=O)N[C@H]1CCC2(CCN(CCCCC(C)(C)C#N)CC2)c2ccccc21 [compound 179],> 5000 nM,< 25%,> 5 µM,< 25%,< 2000 nM,25 to 100%,> 5 µM,< 25%,,,,,,,,
Cn1cnc(C(=O)N[C@@H]2CCC3(CCN(CCC(C)(C)C)CC3)c3cc(F)ccc32)c1 [compound 180],< 2000 nM,25 to 100%,> 5 µM,< 25%,< 2000 nM,25 to 100%,< 2 µM,25 to 100%,,,,,,,,
CCN(C(=O)COC)[C@H]1CCC2(CCN(CCC(C)(C)C)CC2)c2ccccc21 [compound 181],< 2000 nM,25 to 100%,> 5 µM,< 25%,2000 to 5000 nM,25 to 100%,> 5 µM,< 25%,,,,,,,,
CC(C)C[C@@H](C(=O)N[C@@H]1CCC2(CCN(CCC(C)(C)C)CC2)c2ccccc21)N1CCCC1=O [compound 182],< 2000 nM,25 to 100%,> 5 µM,< 25%,2000 to 5000 nM,25 to 100%,> 5 µM,< 25%,,,,,,,,
CCN(C(=O)CC(F)(F)F)[C@H]1CCC2(CCN(CCC(C)(C)C)CC2)c2ccccc21 [compound 183],< 2000 nM,25 to 100%,> 5 µM,< 25%,2000 to 5000 nM,25 to 100%,> 5 µM,< 25%,,,,,,,,
CC(=O)N(C)[C@H]1CCC2(CCN(CCC(C)C)CC2)c2ccccc21 [compound 184],< 2000 nM,25 to 100%,> 5 µM,< 25%,< 2000 nM,25 to 100%,> 5 µM,< 25%,,,,,,,,
CC(=O)N[C@H]1CCC2(CCN(CCCC(F)(F)F)CC2)c2ccccc21 [compound 185],,,,,,,,,++ (activity was measured to be from 2.0 μM to 5.0 μM),25 to 100%,+ (activity was measured to be greater than 5.0 μM),25 to 100%,++ (activity was measured to be from 2.0 μM to 5.0 μM),25 to 100%,+ (activity was measured to be greater than 5.0 μM),< 25%
CC(=O)N1CCCCC1C(=O)N[C@@H]1CCC2(CCN(CCC(C)(C)C)CC2)c2ccccc21 (some centres unmarked) [compound 186],,,,,,,,,+++ (activity was measured to be less than 2.0 μM),25 to 100%,+ (activity was measured to be greater than 5.0 μM),< 25%,++ (activity was measured to be from 2.0 μM to 5.0 μM),25 to 100%,+ (activity was measured to be greater than 5.0 μM),< 25%
CCN(C(=O)CCNC(C)=O)[C@H]1CCC2(CCN(CCC(C)(C)C)CC2)c2ccccc21 [compound 187],,,,,,,,,+++ (activity was measured to be less than 2.0 μM),25 to 100%,+ (activity was measured to be greater than 5.0 μM),< 25%,+++ (activity was measured to be less than 2.0 μM),25 to 100%,+ (activity was measured to be greater than 5.0 μM),< 25%
CC(C)(C)CCN1CCC2(CC[C@@H](NC(=O)C3CCOCC3)c3ccccc32)CC1 [compound 188],,,,,,,,,+++ (activity was measured to be less than 2.0 μM),25 to 100%,+ (activity was measured to be greater than 5.0 μM),< 25%,+ (activity was measured to be greater than 5.0 μM),< 25%,+ (activity was measured to be greater than 5.0 μM),< 25%
